pEC50: −log10 of the molar value. Read-outs that look alike come from different tables or passages of the source.
Key:
Assay type in all cases: cell-based
Human PBMCs = assay: IFN-α induction by TLR agonists in human PBMCs (Luminex)
Method: 1) IFN-α Induction Assay—IFN-α induction by TLR Agonists in Human PBMCs
Abbreviations: BSA=bovine serum albumine; PBS=phosphate buffer pH 7.4; PE=phycoerythrin; EDC=1-ethyl-3-(3-dimethylaminopropyl)carbodiimide hydrochloride.
Materials and Devices: Bio Plex 200 Luminex device, and BioPlex Manager software; MultiScreen Filter Plates (Millipore, MABVN1250); low binding reaction vials 1.5 ml (Sarstedt, 72.706.600); Activation Buffer: 0.1M Na-dihydrogen phosphate, 0.1M Di-Na hydrogen phosphate pH 6.2; Sulfo-NHS (N-hydroxysulfosuccinimide) solution: 50 mg/ml in water (freshly prepared); EDC solution: 50 mg/ml in water (freshly prepared); Coupling Buffer: PBS; Washing Buffer: PBS+0.05% Tween20; Blocking Buffer: PBS+10 mg/ml BSA+0.05% sodium azide; Assay Buffer: PBS+10 mg/ml BSA;
Other materials and devices (pipets, reaction vessels, shaker, etc.) were standard lab equipment; water was MilliQ grade quality, buffers were sterile filtered before use.
(Pre-)Incubation of Cells:
In each well of a 96-well U-bottom plate 200,000 PBMCs were pre-incubated in medium (RPMI1640-Gibco #61870-044+10% FBS+1% L-glutamine) for 5 hours at 37° C. and 5% CO2 before the compounds of the present invention or controls were added, respectively. Upon addition of compounds of the present invention or controls, the cells are incubated for another 24 h at 37° C. and 5% CO2.
Luminex assay, Step 1: Coupling of antibody to beads: • transfer a suspension (beads are stored in buffer as provided by manufacturer) of about 5 million MicroPlex Microspheres (=beads) into a low binding reaction vial • centrifuge bead suspension for 1 min at 10,000 g, discard supernatant and resuspend pellet in 160 μl Activation Buffer, repeat once • add 20 μl Sulfo-NHS solution and 20 μl EDC solution, vortex • incubate for 20 min in the absence of light • centrifuge bead suspension for 1 min at 10,000 g, discard supernatant and resuspend pellet in 500 μl Coupling Buffer, repeat once • add capture antibody (CaptureAK eBioscience #BMS160, 5 μg per 1 Mio beads) • incubate 2 h at RT in the absence of light while swaying • centrifuge bead suspension for 1 min at 10,000 g, discard supernatant and resuspend pellet in 500 μl Washing Buffer, repeat once • centrifuge bead suspension for 1 min at I0,000 g, discard supernatant and resuspend pellet in 100 μl Blocking Buffer
Luminex assay, Step 2: Measurement • add 100 μlAssay Buffer into each filter plate well (seal any unused wells with adhesive tape), then remove buffer • add about 2,000 beads per well per analyte (per analyte, a different bead type with distinct fluorescence color is used), suspended in […] of Assay Buffer • remove buffer and wash twice with 100 μl Washing Buffer per well • per well, add 50 μl sample solution from the (pre-)incubation step (cell supernatant), or Standard (IFN-α standard eBioscience #BMS216MST—concentration gradient, highest standard concentration 2500 pg/ml) or Assay Buffer (as blanks) • shake plate • incubate plate for 2 h at RT in the absence of light, while swaying the plate • wash three times with 100 μl Washing Buffer per well • add 25 μl antibody detection mix (DetectionAK eBioscience #BMS1016BT diluted 1:1000) in Assay Buffer per well, then vortex plate • incubate plate for 1 h at RT in the absence of light, while swaying the plate • wash three times with 100 μl Washing Buffer per well • add 50 μl Streptavidin/PE (diluted 1:200 in Assay Buffer) per well, then vortex plate • incubate plate for 10 min at RT in the absence of light, while swaying the plate • wash three times with 100 μl Washing Buffer per well • add 100 μl Assay Buffer per well, then vortex plate • start Luminex measurement according to manufacturer's instructions, measuring at least 50 beads per well per analyte
The compounds were tested at 8 different concentrations (1 μM, 0.3 μM, 0.1 μM, 0.03 μM, 0.01 μM 0.003 μM, 0.001 μM, 0.0003 μM) using a half-logarithmic dilution. […]

human TLR7 = target: T1, human TLR7 (Homo sapiens, UniProt Q9NYK1); assay: TLR7 reporter gene assay (HEK-Blue-hTLR7, NFkB/AP-1 inducible SEAP); conditions: for pEC50: HEK-Blue-hTLR7
T1 construct: host or cells: HEK-Blue-hTLR7
T1 sequence (Q9NYK1 27-1049): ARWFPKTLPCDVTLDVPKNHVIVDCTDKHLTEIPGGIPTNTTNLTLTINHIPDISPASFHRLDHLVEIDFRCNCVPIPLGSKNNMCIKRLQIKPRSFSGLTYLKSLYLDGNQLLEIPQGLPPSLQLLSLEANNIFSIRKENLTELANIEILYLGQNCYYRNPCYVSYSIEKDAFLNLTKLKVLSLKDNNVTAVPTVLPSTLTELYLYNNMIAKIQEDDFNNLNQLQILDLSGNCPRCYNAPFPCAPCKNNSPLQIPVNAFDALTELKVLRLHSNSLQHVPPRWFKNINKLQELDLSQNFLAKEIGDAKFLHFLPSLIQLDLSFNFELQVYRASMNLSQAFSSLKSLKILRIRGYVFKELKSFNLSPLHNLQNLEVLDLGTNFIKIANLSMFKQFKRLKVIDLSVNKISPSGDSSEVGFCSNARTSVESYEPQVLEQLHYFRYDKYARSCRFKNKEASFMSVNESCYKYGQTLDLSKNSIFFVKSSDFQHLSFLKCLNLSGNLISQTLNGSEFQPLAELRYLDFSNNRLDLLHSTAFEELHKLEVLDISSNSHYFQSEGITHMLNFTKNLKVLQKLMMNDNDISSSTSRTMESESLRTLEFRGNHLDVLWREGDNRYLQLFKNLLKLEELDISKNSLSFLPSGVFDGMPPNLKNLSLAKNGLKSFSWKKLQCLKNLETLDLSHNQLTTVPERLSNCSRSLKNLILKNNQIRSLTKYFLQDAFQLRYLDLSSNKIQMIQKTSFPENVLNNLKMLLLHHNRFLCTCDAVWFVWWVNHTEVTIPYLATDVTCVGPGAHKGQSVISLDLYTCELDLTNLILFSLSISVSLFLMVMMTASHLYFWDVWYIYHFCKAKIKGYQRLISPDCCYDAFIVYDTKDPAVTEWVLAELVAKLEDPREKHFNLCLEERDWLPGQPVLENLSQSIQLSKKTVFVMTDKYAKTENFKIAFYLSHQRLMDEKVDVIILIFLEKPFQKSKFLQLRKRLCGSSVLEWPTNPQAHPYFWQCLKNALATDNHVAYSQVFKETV
Method: (§1) 2) TLR Stimulation Assay:
(§2) Compounds are tested for stimulation of human TLR7 and TLR8, respectively, via reporter gene expression analyzed in a cell line stably transfected with human TLR7 and TLR8, respectively, and coexpressing an NFkB/AP-1 inducible SEAP reporter gene. Stimulation with a TLR ligand leads to NFkB/AP-1 activation and upregulation and secretion of SEAP, which can be measured in the supernatant with QuantiBlue™ detection system (InvivoGen).
Cell lines used were either HEK-Blue-hTLR7 (InvivoGen #hkb-htlr7) or HEK-Blue-hTLR8 (InvivoGen #hkb-htlr8). Cells were cultured following manufacturer's instructions.
Assay: • prepare cell suspensions of each cell line with Nv=0.11×10^6 cells/ml in medium (DMEM 4.5 g/l Glucose, 2-4 mM L-glutamine+10% FBS) without antibiotics (Nv=number of living cells) • add 180 μl of the suspensions per well of a 96 well flat bottom cell culture plates (coster, #3506) • incubate the plates overnight at 37° C. and 5% CO2 • prepare samples and controls as solutions in DMSO: R848, CL075 (TLR 7/8 agonist by InvivoGen) and Guardiquimod each to a final concentration of 10 μM, ODN2006 (InvivoGen) and ODN2216 (InvivoGen) each to a final concentration 2 μM; • compounds of the invention are applied in dilution series to final concentrations of 30, 10, 3, 1, etc. μM • add 20 μl diluted compounds and controls (see above) to the wells • incubate plates for 20-24 h at 37° C. and 5% CO2 • prepare QuantiBlue™ (InvivoGen #10H19-MM) solution, following manufacturer's instructions: solubilize the powder of one pouch in 100 ml MilliQ grade water, heat at 37° C. in a water bath for about 30 min, filter the solution with a paper filter • add 100 μl prepared QuantiBlue™ solution in each well of a 96 well plate with flat bottom • add […] cell culture supernatant from the induced cells per well • incubate plates for 1 to 1.5 h at 37° C. (until an intense blue color has developed) • read OD at 620 nm with a plate reader • calculate EC50 from data points

human TLR8 = target: T2, human TLR8 (Homo sapiens, UniProt Q9NR97); assay: TLR8 reporter gene assay (HEK-Blue-hTLR8, NFkB/AP-1 inducible SEAP)
T2 construct: host or cells: HEK-Blue-hTLR8
T2 sequence (Q9NR97 27-1041): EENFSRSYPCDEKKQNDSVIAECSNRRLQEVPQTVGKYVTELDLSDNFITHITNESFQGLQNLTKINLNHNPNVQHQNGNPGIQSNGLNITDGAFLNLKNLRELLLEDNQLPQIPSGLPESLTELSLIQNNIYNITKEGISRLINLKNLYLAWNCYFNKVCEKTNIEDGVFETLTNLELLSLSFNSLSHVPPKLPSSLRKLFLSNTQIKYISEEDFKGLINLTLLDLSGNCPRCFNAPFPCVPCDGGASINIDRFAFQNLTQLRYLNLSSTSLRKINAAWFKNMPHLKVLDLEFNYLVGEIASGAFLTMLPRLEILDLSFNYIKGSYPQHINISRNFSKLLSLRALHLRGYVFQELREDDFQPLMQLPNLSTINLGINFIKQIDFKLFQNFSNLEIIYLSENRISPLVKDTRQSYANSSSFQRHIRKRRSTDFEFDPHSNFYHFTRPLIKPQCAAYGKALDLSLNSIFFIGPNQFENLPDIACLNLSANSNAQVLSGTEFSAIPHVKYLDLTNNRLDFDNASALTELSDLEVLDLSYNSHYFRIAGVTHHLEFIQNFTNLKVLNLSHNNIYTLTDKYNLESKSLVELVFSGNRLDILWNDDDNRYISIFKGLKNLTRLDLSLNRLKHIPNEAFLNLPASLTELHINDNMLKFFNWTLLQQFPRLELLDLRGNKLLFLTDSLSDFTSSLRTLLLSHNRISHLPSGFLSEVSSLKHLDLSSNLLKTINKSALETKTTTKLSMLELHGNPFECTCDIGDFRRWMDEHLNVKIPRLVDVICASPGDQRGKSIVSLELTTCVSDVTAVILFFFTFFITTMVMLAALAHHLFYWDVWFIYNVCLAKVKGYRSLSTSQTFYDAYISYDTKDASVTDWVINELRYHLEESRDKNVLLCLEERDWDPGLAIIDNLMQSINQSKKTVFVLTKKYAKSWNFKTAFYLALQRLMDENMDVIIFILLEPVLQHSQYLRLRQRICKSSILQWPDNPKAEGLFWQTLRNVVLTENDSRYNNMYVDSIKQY
Method: as §1, §2
Cell lines used were either HEK-Blue-hTLR7 (InvivoGen #hkb-htlr7) or HEK-Blue-hTLR8 (InvivoGen #hkb-htlr8). Cells were cultured following manufacturer's instructions. […]

[1] = comparative compounds with 2-methyltetrahydrofuran-3-yl at R3, Table 2
[2] = 24 h incubation, maximum of bell-shaped curve over 0.0003-1 μM, Table 1

SMILES | Maximum IFN-α release (Human PBMCs; [1]) [pg/mL] | Maximum IFN-α release (Human PBMCs; [2]) [pg/mL] | other results
CCc1nc2c(N)nc3ccccc3c2n1CCCCN(C(C)=O)C1CCOC1C (centres unmarked) [1′] | 930 |  | 
CCNCc1nc2c(N)nc3ccccc3c2n1CCCCN(C(C)=O)C1CCOC1C (centres unmarked) [3′] | 360 |  | 
CCNCc1nc2c(N)nc3ccccc3c2n1CCCCN(C(N)=O)C1CCOC1C (centres unmarked) [4′] | 290 |  | 
COCCc1nc2c(N)nc3ccccc3c2n1CCCCN(C(C)=O)C1CCOC1C (centres unmarked) [5′] | 330 |  | 
CCc1nc2c(N)nc3ccccc3c2n1CCCCN(C(N)=O)C1CCOCC1 [Example 2, 1-(4-(4-Amino-2-ethyl-1H-imidazo[4,5-c]quinolin-1-yl)butyl)-1-(tetrabydro-2H-pyran-4-yl)urea] |  | 1250 | 
CCNCc1nc2c(N)nc3ccccc3c2n1CCCCN(C(C)=O)C1CCOCC1 [Example 3, N-(4-(4-Amino-2-((ethylamino)methyl)-1H-imidazo[4,5-c]quinolin-1-yl)butyl)-N-(tetrahydro-2H-pyran-4-yl)acetamide] |  | 1070 | 
CCNCc1nc2c(N)nc3ccccc3c2n1CCCCN(C(N)=O)C1CCOCC1 [Example 4, 1-(4-(4-Amino-2-((ethylamino)methyl)-1H-imidazo[4,5-c]quinolin-1-yl)butyl)-1-(tetrahydro-2H-pyran-4-yl)urea] |  | 920 | 
COCCc1nc2c(N)nc3ccccc3c2n1CCCCN(C(C)=O)C1CCOCC1 [Example 5, N-(4-(4-Amino-2-(2-methoxyethyl)-1H-imidazo[4,5-c]quinolin-1-yl)butyl)-N-(tetrahydro-2H-pyran-4-yl)acetamide] |  | 880 | 
COCCc1nc2c(N)nc3ccccc3c2n1CCCCN(C(N)=O)C1CCOCC1 [Example 6, 1-(4-(4-Amino-2-(2-methoxyethyl)-1H-imidazo[4,5-c]quinolin-1-yl)butyl)-1-(tetrahydro-2H-pyran-4-yl)urea] |  | 1850 | 
CCc1nc2c(N)nc3ccccc3c2n1CCCCN(C(C)=O)C1CCOC1C (centres unmarked) [example III, 3-{acetyl[4-(4-amino-2-ethyl-1H-imidazo[4,5-c]quinolin-1-yl)butyl]amino}-2,5-anhydro-1,3,4-trideoxypentitol] |  |  | maximum IFN-α release relative to present Example 1 (Human PBMCs; % of the maximum IFN-α release of Example 1): about 50%; pEC50 (human TLR7; read-out: EC50 in the TLR7 reporter gene assay): 6.36; EC50 in TLR7 reporter gene assay relative to Example 1 (human TLR7; fold higher EC50 than Example 1): ten-fold higher
CCc1nc2c(N)nc3ccccc3c2n1CCCCNC1CCOCC1 [example V, 2-ethyl-1-(4-((tetrahydro-2H-pyran-4-yl)amino)butyl)-1H-imidazo[4,5-c]quinolin-4-amine] |  |  | pEC50 (human TLR7; highest concentration without any activity, read-out: activity towards TLR7 (no activity up to a concentration of)): < 4.52; activity towards TLR8 in the TLR8 reporter gene assay (human TLR8): displayed activity

Reference: US12054485B2, “Substituted imidazoquinolines” (BIONTECH SE, priority 2017, dated 2024)
